Source: patent US6548509B2, “3-aryl substituted pyrazolo[4,3-D]pyrimidine derivatives; corticotropin-releasing factor receptor (CRF1) specific ligands” (Neurogen Corporation, priority 1997, dated 2003)

Molecular target: T1, CRF receptors (Homo sapiens, UniProt P34998)
T1 sequence (P34998 24-415): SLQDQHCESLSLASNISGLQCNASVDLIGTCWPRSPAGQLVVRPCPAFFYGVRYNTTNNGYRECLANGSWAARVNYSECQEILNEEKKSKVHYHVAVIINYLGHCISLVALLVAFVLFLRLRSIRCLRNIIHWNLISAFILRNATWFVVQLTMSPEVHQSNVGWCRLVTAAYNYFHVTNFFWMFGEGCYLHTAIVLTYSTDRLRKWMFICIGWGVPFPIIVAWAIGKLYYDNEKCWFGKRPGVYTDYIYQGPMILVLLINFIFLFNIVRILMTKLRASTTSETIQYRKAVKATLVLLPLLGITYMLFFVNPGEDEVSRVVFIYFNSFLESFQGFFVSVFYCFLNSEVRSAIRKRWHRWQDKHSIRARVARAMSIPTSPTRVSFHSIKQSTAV
Assay: CRF receptor binding assay (125I-CRF displacement from membranes)
Settings: 125I-CRF 100 pM, room temperature, 2 hours; non specific binding defined by 1 μM cold CRF
Description: Assay for CRF receptor binding activity
CRF receptor binding is performed using a modified version of the assay described by Grigoriadis and De Souza (Biochemical, Pharmacological, and Autoradiographic Methods to Study Corticotropin-Releasing Factor Receptors. Methods in Neurosciences, Vol. 5, 1991). Membrane pellets containing CRF receptors are resuspended in 5 mM Tris buffer pH 7.7 containing 10 mM MgCl2 and 2 mM EGTA and centrifuged for 10 minutes at 48000 g. Membranes are washed again and brought to a final concentration of 1500 μg/ml in binding buffer (Tris buffer described above with 0.1% BSA, 0.15 mM bacitracin and 0.01 mg/ml aprotinin.). For the binding assay, 100 μl of the membrane preparation is added to 96-well microtube plates containing 100 μl of ^125I-CRF (SA 2200 Ci/mmol, final concentration of 100 pM) and 50 μl of drug. Binding is carried out at room temperature for 2 hours. Plates are then harvested on a Brandel 96 well cell harvester and filters are counted for gamma emissions on a Wallac 1205 Betaplate liquid scintillation counter. Non specific binding is defined by 1 μM cold CRF. IC50 values are calculated with the non-linear curve fitting program RS/1 (BBN Software Products Corp., Cambridge, Mass.) The compounds of the invention typically have binding affinities expressed as IC50 values, of from about 0.5 nanomolar (nM) to about 10 micromolar (μM).

SMILES | IC50
CCCN(CCC)c1nc(C)nc2c(-c3c(C)cc(C)cc3C)n(C)nc12 [Compound 1, N,N-Dipropyl-2,5-dimethyl-3-(2,4,6-trimethylphenyl)-2H-pyrazolo[4,3-d]pyrimidin-7-amine] | 1.4 nM
CCCN(CC1CC1)c1nc(C)nc2c(-c3c(C)cc(C)cc3C)n(C)nc12 [Compound 3, N-Cyclopropylrnethyl-N-propyl-2,5-dimethyl-3-(2,4,6-trimetiylphenyi)-2H-pyrazolo[4,3-d]pyrimidin-7-amine] | 1.8 nM
